By pKi is commonly meant −log10 of the Ki, conventionally taken in molar units. As a reminder, the pIC50 is the negative decadic logarithm of the IC50, by convention in mol/L. A higher pIC50 goes with a low IC50.

The text below walks through data of patent publication US6329400A, “Formamide compounds as therapeutic agents” (Glaxo Wellcome Inc., priority 1998, dated 2001).

Each structure is given as a SMILES string. pIC50, pKi: −log10 of the molar value.

In experiment [1] the target is T1, 19 kD truncated collagenase-1 (MMP-1) (Homo sapiens, UniProt P03956).
T1 construct: 19 kD truncated collagenase-1 (MMP-1)
T1 sequence (P03956 101-269 limits assumed): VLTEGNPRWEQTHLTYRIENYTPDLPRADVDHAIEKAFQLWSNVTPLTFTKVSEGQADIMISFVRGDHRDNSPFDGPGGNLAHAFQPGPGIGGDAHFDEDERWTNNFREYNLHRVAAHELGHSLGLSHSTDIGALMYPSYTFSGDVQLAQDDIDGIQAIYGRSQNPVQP
The experiment can be described thus: Matrix Metalloprotease Inhibition Protocol, collagenase-1. In kind it is biochemical. The note with it: fluorogenic substrate, pH 7.6; IC50 equivalent to Ki at [S]<<Km. On the procedure:
(§1) A. Matrix Metalloprotease Inhibition Protocol
(§2) Assays are conducted in a total volume of 0.180 mL assay buffer (200 mM NaCl, 50 mM Tris, 5 mM CaCl2, 10 μM ZnSO4, 0.005% Brij 35, pH 7.6) in each well of a black 96 well microtiter plate. 19 kD collagenase-1, 20 kD collagenase-3, stromelysin-1,and 50 kD gelatinase B concentrations are adjusted to 500 pM, 30 pM, 5 nM, and 100 pM, respectively. A dose response is generated using an eleven-point, 3-fold serial dilution with initial starting test compound concentrations of 100, 10, or 1 μM. Inhibitor and enzyme reactions are incubated for 30 minutes at ambient temperature and then initiated with 10 μM fluorogenic substrate (above). The product formation is measured at Excitation343 /Emission450 nm after 45-180 minutes using a Fluostar SLT fluorescence analyzer. Percent inhibition is calculated at each inhibitor concentration and the data were plotted using standard curve fitting programs. IC50 values were determined from these curves. Assays were run at low substrate concentration ([S]<<Km) such that the calculated IC50 values are equivalent to Ki within experimental error.

For experiment [2], the target named is 20 kD truncated collagenase-3 (MMP-13). The experiment can be described thus: Matrix Metalloprotease Inhibition Protocol, collagenase-3. In kind it is biochemical. The note with it: fluorogenic substrate, pH 7.6; IC50 equivalent to Ki at [S]<<Km. The protocol:
as §1
as §2, with “curves.” for “curves. Assays were run at low substrate concentration ([S]<<Km) such that the calculated IC50 values are equivalent to Ki within experimental error.”

For experiment [3], the target named is 50 kD truncated gelatinase B (MMP-9). The experiment can be described thus: Matrix Metalloprotease Inhibition Protocol, gelatinase B. Format: biochemical. As to conditions: fluorogenic substrate, pH 7.6; IC50 equivalent to Ki at [S]<<Km. The protocol: as §1
as §2, with “curves.” for “curves. Assays were run at low substrate concentration ([S]<<Km) such that the calculated IC50 values are equivalent to Ki within experimental error.”

The next experiment has as its target stromelysin-1 (MMP-3) (Homo sapiens, UniProt P08254). The experiment can be described thus: Matrix Metalloprotease Inhibition Protocol, stromelysin-1. In kind it is biochemical. The note with it: fluorogenic substrate, pH 7.6; IC50 equivalent to Ki at [S]<<Km. On the procedure: as §1, §2
The subject of experiment [4] is TNFα release from MonoMac 6 cells. The experiment can be described thus: Cell-Based TNFα Release Inhibition Protocol. As to conditions: Homo sapiens, MONO-MAC-6; LPS/PMA-stimulated MonoMac 6 cells, 37° C., 2 hours. On the procedure: C. Cell-Based TNFα Release Inhibition Protocol
This solution is then diluted 1:1000 (40 ng/mL and 120 ng/mL) for use later in the assay. Compounds (10 mM) are serially diluted 1:3 in DMSO. Compound dilutions (20 μL) are added to a sterile round bottom 96 well plate (20 μL:200 μL total volume=1:10 for final concentrations of 50 μM for test compounds). MonoMac 6 cell suspension (130 μL, 1.5×10^6 cells/mL) is then added to each well resulting in 2×10^5 cells/well. LPS/PMA (50 μL) solution is then added to each well to begin stimulation (final concentrations of 10 ng/mL and 30 ng/mL respectively). The plate is incubated at 37° C. for 2 hours then spun at 1,500 rpm for 3 minutes to pellet cells. The supernatant (120 μL/well) is removed to a new round bottom 96 well plate and diluted 1:10 in PBS. Then, 20 μL of the supernatant is transferred to a Cistron TNFα ELISA plate and processed according to the manufacturer's instructions to quantitate levels of TNFα. Percent inhibition of TNFα release is calculated at each inhibitor concentration and the data were plotted using standard curve fitting programs. IC50 values were determined from these curves.

In a further experiment the target is T2, TNFα converting enzyme (Homo sapiens, UniProt P78536).
T2 construct: Membrane preparation from MonoMac 6 cells; endogenous in cells; host or cells: MonoMac 6 cells (membrane preparation, subfractionated extract)
T2 sequence (P78536 215-824): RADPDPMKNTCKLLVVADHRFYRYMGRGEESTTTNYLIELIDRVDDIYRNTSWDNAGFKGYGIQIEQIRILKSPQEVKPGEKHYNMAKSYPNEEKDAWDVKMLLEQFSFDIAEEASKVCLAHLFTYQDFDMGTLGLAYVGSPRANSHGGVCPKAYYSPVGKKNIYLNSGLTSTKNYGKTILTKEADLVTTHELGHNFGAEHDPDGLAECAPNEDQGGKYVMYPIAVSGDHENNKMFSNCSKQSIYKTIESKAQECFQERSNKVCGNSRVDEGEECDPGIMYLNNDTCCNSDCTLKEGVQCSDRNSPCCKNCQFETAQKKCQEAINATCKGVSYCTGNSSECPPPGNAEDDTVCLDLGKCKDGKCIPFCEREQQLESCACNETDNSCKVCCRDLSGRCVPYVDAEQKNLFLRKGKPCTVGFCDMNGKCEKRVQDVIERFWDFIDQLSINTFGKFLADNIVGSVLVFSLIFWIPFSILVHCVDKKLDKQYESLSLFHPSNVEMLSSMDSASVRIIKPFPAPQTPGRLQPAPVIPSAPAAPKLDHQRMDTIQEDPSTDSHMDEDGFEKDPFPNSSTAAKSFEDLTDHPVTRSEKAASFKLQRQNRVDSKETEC
The experiment can be described thus: TNFα Converting Enzyme Inhibition Protocol. In kind it is biochemical. As to conditions: cell-free, MonoMac 6 membrane preparation; IC50 equivalent to Ki at [S]<<Km. The protocol:
B. TNFα Converting Enzyme Inhibition Protocol
The reaction is quenched by addition of streptavidin SPA beads (Amersham RPNQ0006), with excess binding capacity relative to substrate, suspended in 250 mM EDTA, pH 8.0. Binding is complete within 15 minutes and plates are counted in a Wallac 1450 Microbeta liquid scintillation counter. Percent inhibition is calculated at each inhibitor concentration and the data were plotted using standard curve fitting programs. IC50 values were determined from these curves.

stromelysin-1 (MMP-3), sequence (P08254 100-477): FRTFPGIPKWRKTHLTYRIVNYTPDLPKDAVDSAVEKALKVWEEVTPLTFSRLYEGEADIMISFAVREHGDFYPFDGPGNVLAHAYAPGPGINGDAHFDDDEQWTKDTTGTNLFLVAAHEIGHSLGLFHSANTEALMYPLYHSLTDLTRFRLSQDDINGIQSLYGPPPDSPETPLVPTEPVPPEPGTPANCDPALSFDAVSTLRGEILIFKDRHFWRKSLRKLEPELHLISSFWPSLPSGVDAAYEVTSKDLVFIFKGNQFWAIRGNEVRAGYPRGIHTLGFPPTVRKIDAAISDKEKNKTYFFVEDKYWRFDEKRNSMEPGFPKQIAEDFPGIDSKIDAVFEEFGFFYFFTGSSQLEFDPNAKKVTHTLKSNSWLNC

`CCC[C@@H]([C@@H](CC(C)Cc1ccccc1)C(=O)N[C@@H](CCCCNC(=O)OCc1ccccc1)C(=O)Nc1nccs1)N(O)C=O` (stereo partly drawn) [Example 9, (2R,3S)-3-(Formyl-hydroxyamino)-2-(3-phenyl-2-methyl-1-propyl)hexanoic Acid [(1S)-5-Benzyloxycarbonylamino-1-(1,3-thiazol-2-ylcarbamoyl)-1-pentyl]amide]: the pKi was below 6.00 in experiment [1], 6.00 to 6.30 in experiment [2], below 6.00 in experiment [3] and below 6.00 on stromelysin-1 (MMP-3). For the same compound, in experiment [4], the pIC50 was 6.30 to 7.00.

Regarding `C[C@@H]([C@@H](CCCc1ccc(Cl)cc1)C(=O)N[C@H](C(=O)Nc1cccnc1)C(C)(C)C)N(O)C=O` [Example 195, (2R,3S)-3-(Formyl-hydroxyamino)-2-(3-(4-chlorophenyl)-1-propyl)butanoic Acid [(1S)-2,2-Dimethyl-1-(pyridine-3-ylcarbamoyl)-1-propyl]amide], the negative-log Ki (pKi) on TNFα converting enzyme was below 6.00; in experiment [1], above 7.00; in experiment [2], above 7.00; in experiment [3], above 7.00; on stromelysin-1 (MMP-3) it was above 7.00.

As for `CCC[C@@H]([C@@H](CC(C)Cc1ccccc1)C(=O)N[C@H](C(=O)Nc1nccs1)C(C)(C)C)N(O)C=O` (stereo partly drawn) [Example 8, (2R,3S)-3-(Formyl-hydroxyamino)-2-(3-phenyl-2-methyl-1-propyl)hexanoic Acid [(1S)-2,2-Dimethyl-1-(1,3-thiazol-2-ylcarbamoyl)-propyl]amide], the negative logarithm of the Ki (pKi) is above 7.00 on TNFα converting enzyme; below 6.00 in experiment [1]; 6.30 to 7.00 in experiment [2]; below 6.00 in experiment [3]; below 6.00 at stromelysin-1 (MMP-3). In experiment [4], the pIC50 is below 6.00.

As to `CCC[C@@H]([C@@H](CCCc1ccoc1)C(=O)N[C@@H](CCCCNC(=O)OCc1ccccc1)C(=O)Nc1nccs1)N(O)C=O` [Example 4, (2R,3S)-3-(Formyl-hydroxyamino)-2-(3-(3-furyl)-1-propyl)hexanoic Acid [(1S)-5-Benzyloxycarbonylamino-1-(1,3-thiazol-2-ylcarbamoyl)-1-pentyl]amide], the negative-log Ki (pKi) was above 7.00 on TNFα converting enzyme; below 6.00 in experiment [1]; above 7.00 in experiment [2]; 6.30 to 7.00 in experiment [3]; above 7.00 on stromelysin-1 (MMP-3). Further, the pIC50 in experiment [4] was above 7.00.

On to `CCC[C@@H]([C@@H](CCCc1ccccc1)C(=O)N[C@@H](CCCCNC(=O)OCc1ccccc1)C(=O)Nc1nncs1)N(O)C=O` [Example 3, (2R,3S)-3-(Formyl-hydroxyamino)-2-(3-phenyl-1-propyl)hexanoic Acid [(1S)-5-Benzyloxycarbonylamino-1-(1,3,4-thiadiazol-2-yl-carbamoyl)-1-pentyl]amide], for which the values for the pKi (at TNFα converting enzyme; in experiment [1]; on stromelysin-1 (MMP-3)) were above 7.00, below 6.00 and above 7.00, respectively. The compound further had a pIC50 in experiment [4] of 6.30 to 7.00.

In the case of `CCC[C@@H]([C@@H](CCCc1ccoc1)C(=O)N[C@H](C(=O)Nc1nccs1)C(C)(C)C)N(O)C=O` [Example 5, (2R,3S)-3-(Formyl-hydroxyamino)-2-(3-(3-furyl)-1-propyl)hexanoic Acid [(1S)-2,2-Dimethyl-1-(1,3-thiazol-2-ylcarbamoyl)-1-propyl]amide], the pKi in experiment [1] is 6.00 to 6.30; in experiment [2], above 7.00; in experiment [3] it was above 7.00; at stromelysin-1 (MMP-3) it was above 7.00. This compound gave a pIC50 in experiment [4] of 6.30 to 7.00.

With `C[C@@H]([C@@H](CC1CCC(c2ccccc2)CC1)C(=O)N[C@H](C(=O)Nc1nccs1)C(C)(C)C)N(O)C=O` (stereo partly drawn) [Example 2, (2R,3S)-3-(Formyl-hydroxyamino)-2-(4-phenylcyclohexylmethyl)butanoic Acid [(1S)-2,2-Dimethyl-1-(1,3-thiazol-2-ylcarbamoyl)-1-propyl]amide], the pKi is above 7.00 at TNFα converting enzyme; 6.00 to 6.30 in experiment [1]; above 7.00 in experiment [2]; 6.30 to 7.00 in experiment [3]; 6.30 to 7.00 on stromelysin-1 (MMP-3). In addition, in experiment [4], the negative-log IC50 (pIC50) is below 6.00.

As to `CCC[C@@H]([C@H](COCc1ccccc1)C(=O)N[C@@H](CCCCNC(=O)OCc1ccccc1)C(=O)Nc1nccs1)N(O)C=O` [Example 6, (2R,3S)-3-(Formyl-hydroxyamino)-2-(benzyloxymethyl)hexanoic Acid [(1S)-5-Benzyloxycarbonylamino-1-(1,3-thiazol-2-ylcarbamoyl)-1-pentyl]amide], the pKi on TNFα converting enzyme was above 7.00; in experiment [1], below 6.00; in experiment [2], 6.30 to 7.00; in experiment [3] it was below 6.00; at stromelysin-1 (MMP-3), 6.30 to 7.00. The same compound showed a pIC50 in experiment [4] below 6.00.

On to `C[C@@H]([C@@H](CCCc1ccccc1)C(=O)N[C@H](C(=O)Nc1cccnc1)C(C)(C)C)N(O)C=O` [Example 1, (2R,3S)-3-(Formyl-hydroxyamino)-2-(3-phenyl-1-propyl)butanoic Acid [(1S)-2,2-Dimethyl-1-(pyridine-3-ylcarbamoyl)-1-propyl]amide], for which the pKi was 6.00 to 6.30 on TNFα converting enzyme; above 7.00 in experiment [1]; above 7.00 in experiment [2]; above 7.00 in experiment [3]; above 7.00 at stromelysin-1 (MMP-3).

As to `CCC[C@@H]([C@@H](CC(C)Cc1ccccc1)C(=O)N[C@H](C(=O)Nc1nccs1)C(C)(C)SCCNC(=O)OCc1ccccc1)N(O)C=O` (stereo partly drawn) [Example 7, (2R,3S)-3-(Formyl-hydroxyamino)-2-(3-phenyl-2-methyl-1-propyl)hexanoic Acid [(1R)-2-Methyl-2-(2-benzyloxycarbonylamino-1-ethylsulfanyl)-1-(1,3-thiazol-2-ylcarbamoyl)-1-propyl]-amide], the negative logarithm of the Ki (pKi) at TNFα converting enzyme is 6.30 to 7.00; in experiment [1], below 6.00; in experiment [2], 6.00 to 6.30; in experiment [3], below 6.00; on stromelysin-1 (MMP-3), below 6.00. The pIC50 in experiment [4] was below 6.00.
